The values that follow come from ChEMBL document CHEMBL1201862, “PubChem BioAssay data set” (2004).

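Tested at 5 concentrations; 48 h exposure; 96-well plates; endpoints linearly interpolated, else capped at highest concentration. At the GI50, growth is halved.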 Active and inactive are the calls of the source. Cut-off read from the data, not from the text of the source: active = GI50 up to about 1.1 µM and inactive = higher.

Test systems include A498; A549; ACHN; BT-549; CCRF-CEM; HCC 2998; HT-29; Hs-578T; KM12; M14; MCF7; MDA-MB-231; MDA-N; MOLT-4; NCI-H226; NCI-H460; OVCAR-8; SK-OV-3; U-251; UO-31.
Common to all, as to experiment: inhibition of tumour cell growth, NCI panel, 48 h

Take `CC1CC[C@@]2(OC1)OC1C[C@H]3[C@@H]4CC=C5CC(OC6OC(CO)C(OC7OC(CO)C(O)C(OC8OCC(O)C(O)C8O)C7OC7OC(CO)C(OC8OC(C)C(OC9OC(C)C(O)C(O)C9O)C(O)C8O)C(O)C7O)C(O)C6O)CCC5(C)[C@H]4CCC3(C)C1[C@@H]2C` (some centres undefined): the GI50 in the assay with A498 was 2.02 µM (inactive); in the assay with A549 it was 7.48 µM (inactive); in the assay on ACHN, 2.5 µM (inactive); in the assay with BT-549 it was 9.2 µM (inactive); in the assay with CCRF-CEM, 10.4 µM (inactive); in the assay with HCC 2998 it was 7.08 µM (inactive). Further, the GI50 in the assay on HT-29 was 8.17 µM (inactive); in the assay on Hs-578T it was 9.29 µM (inactive); with KM12 it was 9.33 µM (inactive); with M14, 4.28 µM (inactive); in the assay with MCF7 it was 14.1 µM (inactive); with MDA-MB-231, 5.36 µM (inactive). For the same molecule, the GI50 is 9.02 µM (inactive) with MDA-N; 11.6 µM (inactive) with MOLT-4; 9.08 µM (inactive) in the assay with NCI-H226; 9.93 µM (inactive) with NCI-H460; 9.95 µM (inactive) with OVCAR-8; 9.23 µM (inactive) in the assay with SK-OV-3. In addition, the GI50 in the assay with U-251 was 9.04 µM (inactive).
As to `Nc1nc(-c2ccccc2)nc2oc(-c3cccs3)nc12`, the GI50 in the assay on A498, in the assay on A549, with ACHN, with BT-549, in the assay with CCRF-CEM and with HCC 2998 was > 100 µM (inactive) throughout. The GI50 in the assay with HT-29, in the assay with Hs-578T, in the assay on KM12, with M14, in the assay with MCF7 and with MDA-MB-231 was > 100 µM (inactive) throughout. The GI50 in the assay on MDA-N was > 10 µM (inactive); in the assay on MOLT-4, > 100 µM (inactive); with NCI-H226, > 100 µM (inactive); in the assay with NCI-H460, > 100 µM (inactive); in the assay with OVCAR-8, > 100 µM (inactive); in the assay with U-251, > 100 µM (inactive). Further, the GI50 with UO-31 is > 100 µM (inactive).
Consider `S=c1sscc1N1CCSc2ssc(=S)c21`, for which the GI50 in the assay on A498 was 32.1 µM (inactive); in the assay on A549, 48.6 µM (inactive); in the assay with ACHN, 30.5 µM (inactive); in the assay on BT-549 it was 37 µM (inactive); in the assay with CCRF-CEM it was > 100 µM (inactive); in the assay on HCC 2998, > 100 µM (inactive). Besides, the GI50 is > 100 µM (inactive) in the assay on HT-29; 88.1 µM (inactive) in the assay on Hs-578T; > 100 µM (inactive) with KM12; > 100 µM (inactive) with M14; 32.7 µM (inactive) in the assay with MCF7; 30.1 µM (inactive) with MDA-MB-231. The GI50 in the assay with MDA-N was > 100 µM (inactive); in the assay with MOLT-4, > 100 µM (inactive); in the assay with NCI-H226 it was 67.8 µM (inactive); with NCI-H460 it was > 100 µM (inactive); with OVCAR-8, 4.66 µM (inactive); in the assay on U-251, 13.8 µM (inactive). Further, in the assay on UO-31, the GI50 was 29.9 µM (inactive).
Take `CCCCCCCCCCCCOc1ccc(/C=C/C2=[N+](CCCl)CCO2)cc1`: the GI50 in the assay on A498 was > 100 µM (inactive); with A549 it was 65.2 µM (inactive); in the assay on ACHN, 50.2 µM (inactive); in the assay on BT-549 it was > 100 µM (inactive); in the assay with CCRF-CEM, 22.8 µM (inactive); with HCC 2998, 39.1 µM (inactive). In addition, the GI50 was > 100 µM (inactive) with HT-29; 56.6 µM (inactive) in the assay with Hs-578T; 38 µM (inactive) in the assay on KM12; > 100 µM (inactive) in the assay on M14; 54.2 µM (inactive) in the assay with MCF7; 25.1 µM (inactive) with MDA-MB-231. Moreover, the GI50 in the assay with MDA-N is 75.9 µM (inactive); in the assay with MOLT-4, 25 µM (inactive); in the assay with NCI-H226 it was > 100 µM (inactive); with NCI-H460, 43.4 µM (inactive); in the assay with OVCAR-8, 56.4 µM (inactive); in the assay on SK-OV-3 it was > 100 µM (inactive). Further, the GI50 in the assay on U-251 was 24.3 µM (inactive); in the assay with UO-31, 47.3 µM (inactive).
`Cc1cc(-n2nnc(C(=O)O)c2-c2ccccc2)c2ccc(Cl)cc2n1`: the GI50 in the assay on A498, with A549, in the assay with ACHN, with BT-549, with CCRF-CEM and in the assay with HCC 2998 was > 100 µM (inactive) throughout. Moreover, the GI50 with HT-29, with Hs-578T, in the assay on KM12, in the assay with M14, with MCF7 and in the assay on MDA-MB-231 was > 100 µM (inactive) throughout. In addition, the GI50 in the assay on MDA-N is > 100 µM (inactive); with MOLT-4 it was 17.5 µM (inactive); with NCI-H226 it was > 100 µM (inactive); in the assay with NCI-H460, > 100 µM (inactive); in the assay on OVCAR-8, > 100 µM (inactive); in the assay on SK-OV-3 it was > 100 µM (inactive). Moreover, the GI50 with U-251 and with UO-31 was > 100 µM (inactive) throughout.
Turning to `Nc1c(-c2nc3ccccc3o2)sc(=S)n1-c1ccc(Cl)cc1`, the GI50 was 37.7 µM (inactive) in the assay on A498; 13.2 µM (inactive) with A549; 9.1 µM (inactive) with ACHN; 31 µM (inactive) in the assay on BT-549; > 100 µM (inactive) in the assay on CCRF-CEM; 1.27 µM (inactive) in the assay on HCC 2998. Also, the GI50 was 37.4 µM (inactive) in the assay on HT-29; 12.8 µM (inactive) in the assay with Hs-578T; 22.4 µM (inactive) with KM12; 15.4 µM (inactive) with M14; 5.07 µM (inactive) with MCF7; 19.3 µM (inactive) with MDA-MB-231. Moreover, the GI50 in the assay on MDA-N is 21.4 µM (inactive); in the assay with MOLT-4, > 100 µM (inactive); in the assay with NCI-H226 it was 13.9 µM (inactive); with NCI-H460 it was 23 µM (inactive); in the assay on OVCAR-8, 12.1 µM (inactive); in the assay on SK-OV-3 it was 15.5 µM (inactive). In addition, the results for the GI50 in the assay with U-251 and in the assay on UO-31 were 15.6 µM (inactive) and 29.4 µM (inactive), respectively.
As for `CCCCc1ccc(Nc2cc(=O)n(C)c(=O)[nH]2)cc1`, the GI50 in the assay with A498, with A549, in the assay on ACHN, with BT-549, with HCC 2998 and with HT-29 was > 100 µM (inactive) each time. For the same molecule, the GI50 was > 100 µM (inactive) with Hs-578T; 49.4 µM (inactive) with KM12; > 100 µM (inactive) in the assay with M14; 22.9 µM (inactive) in the assay with MCF7; 89.7 µM (inactive) in the assay with MDA-MB-231; > 100 µM (inactive) in the assay with MDA-N. Besides, the GI50 with NCI-H226 was > 100 µM (inactive); with NCI-H460 it was 32.2 µM (inactive); with OVCAR-8, 57 µM (inactive); in the assay with SK-OV-3 it was > 100 µM (inactive); in the assay with U-251 it was 54.3 µM (inactive); in the assay on UO-31, > 100 µM (inactive).
On to `CNNC1=NS(=O)(=O)c2cc(C(=O)OC)c(Cl)cc2S1`, for which the GI50 in the assay with A498, in the assay with A549, in the assay on ACHN, in the assay on BT-549, with CCRF-CEM and with HCC 2998 was > 10 µM (inactive) each time. For the same molecule, the GI50 in the assay on HT-29, in the assay on Hs-578T, with KM12, in the assay with M14, in the assay on MCF7 and in the assay on MDA-MB-231 was > 10 µM (inactive) throughout. The GI50 in the assay on MDA-N, in the assay on MOLT-4, with NCI-H226, in the assay with NCI-H460, with OVCAR-8 and in the assay with SK-OV-3 was > 10 µM (inactive) throughout. Moreover, the GI50 is > 10 µM (inactive) in the assay on U-251 and 0.001 µM (active) with UO-31.
`CC1(C)CCCC(C)(C2CCC3(C)C2C(O)CC2C4(C)CCC(O)C(C)(C)C4CCC23C)O1` (centres undefined): the GI50 with A498 is > 100 µM (inactive); in the assay with A549 it was > 100 µM (inactive); in the assay with ACHN, 56.9 µM (inactive); in the assay on BT-549, > 100 µM (inactive); in the assay on CCRF-CEM it was > 100 µM (inactive); with HCC 2998 it was > 100 µM (inactive). Besides, the GI50 in the assay with HT-29 was 78.9 µM (inactive); in the assay on Hs-578T it was 20.7 µM (inactive); with KM12, > 100 µM (inactive); in the assay with M14, > 100 µM (inactive); in the assay with MCF7 it was 61.1 µM (inactive); with MDA-MB-231 it was 34.5 µM (inactive). Besides, the GI50 in the assay on MDA-N is > 100 µM (inactive); in the assay on MOLT-4, 93.1 µM (inactive); with NCI-H226 it was > 100 µM (inactive); in the assay with NCI-H460, 56.6 µM (inactive); with OVCAR-8, 42.4 µM (inactive); with SK-OV-3, 46.2 µM (inactive). The GI50 in the assay on U-251 and in the assay on UO-31 was > 100 µM (inactive) throughout.
Turning to `COc1ccc(Nc2cc(O)nc(O)n2)cc1`, the GI50 in the assay on A498, in the assay on A549, in the assay on ACHN, in the assay on BT-549, in the assay with CCRF-CEM and in the assay on HCC 2998 was > 100 µM (inactive) in each case. For the same molecule, the GI50 with HT-29, in the assay on Hs-578T, with KM12, with M14, with MCF7 and in the assay with MDA-MB-231 was > 100 µM (inactive) throughout. The GI50 in the assay with MDA-N, in the assay with MOLT-4, in the assay on NCI-H226, with NCI-H460, in the assay on OVCAR-8 and in the assay on U-251 was > 100 µM (inactive) in each case. The GI50 in the assay with UO-31 was > 100 µM (inactive).
